Laboratory results from patent US6919470B2, “Aryl and heteroaryl sulfonates” (priority 2000, dated 2005).

Tests used:
[1] = Microsomal stability investigation (rat liver microsomes); assay type: in vitro ADME; conditions: predicted from microsomal data
From the text: The metabolic stability of the compounds according to the invention can be found in the following in vitro assay: 4. Microsomal Stability Investigation The metabolic stability of the compounds according to the invention can be measured in rat liver microsomes (in analogy to J. Pharmacol. Exp. Ther. 1997, 283. 46-58). To determine the microsomal stability and extrapolate to the maximum possible bioavailability (Fmax) owing to the first-past effect in the liver (phase 1 reactions), the substance is incubated in low concentration with microsomal protein, with addition of cofactors, at 37° C. for 15 minutes. The incubation and the sampling take place on a modified automatic pipettor from Canberra Packard. Microsomal data (rat liver microsomes) predict a maximum possible availability of up to 100%.

[2] = Pharmacokinetics in the rat; assay type: in vivo
Description: The bioavailability of the compounds according to the invention, and other pharmacokinetic parameters, can be determined in vivo in the following way:
5. Pharmacokinetics in the Rat
The substance is infused through a Braunüle in a lateral tail vein directly into the blood stream over 15 minutes. A calibrated 20 ml syringe is used for accurate administration of the chosen dose and volume. A Braun Melsungen No. 152440/1 pump is used for the infusion.
The substance is administered as bolus by gavage.
Blood samples are collected from catheterized animals jugular vein) in heparinized tubes. The blood is centrifuged and the plasma is prepared in a suitable manner for analysis (LC-MS-MS). The plasma is stored at <−15° C. until analyzed.
d) Pharmacokinetic Results of Example 2

[3] = target: T1, CB1 receptor (Rattus norvegicus, UniProt P20272); test: Rat hypothermia agonism test; assay type: in vivo; conditions: oral administration
T1 construct: from tissue; host or cells: whole animal (rat), oral dosing
Description: The in vivo agonistic effect on the CB1 receptor was examined in the rat hypothermia assay.
Five minutes after determining the basal body temperature via an esophageal temperature probe, the test substance is administered (orally). A control group receives, likewise orally, only the solvent for the test substances (Cremophors EL 1-10%+distilled water). The body temperature is measured 120 and 240 minutes after oral administration. The size of the group for each dose is 5-7 animals (rats).
Rat Hypothermia Agonism Test

[4] = tested on: rat; test: Axotomy of sciatic branches in the rat (chronic pain model); assay type: in vivo; conditions: orally, acute administration, 60 minutes before the test
Description: 7. Axotomy of Sciatic Branches in the Rat (Chronic Pain Model)
Under pentobarbital anesthesia, the trifurcation of a sciatic nerve is exposed, and the peroneal and tibial branches are axotomized after the nerves have been ligated proximal of the axotomy site. Control animals undergo a sham operation. After the operation, the axotomized animals develop chronic mechanical allodynia and thermal hyperalgesia.
The mechanical allodynia is tested, comparing with sham-operated animals, with the aid of a pressure transducer (electronic von Frey anesthesiometer, IITC Inc.-Life Science Instruments, Woodland Hills, Calif., USA).
The thermal hyperalgesia can be determined by measuring the latency time within which a rat removes a paw from the area of a radiant heat source (plantar test, Ugo Basile (Milan)).
The substance was administered by various administration routes (i.v., i.p., orally, i.t., i.c.v., transdermally) at various times before the pain testing.
Example 2 reduces the hyperalgesia in the model at a minimally effective dose of 1 mg/kg orally (acute administration, 60 minutes before the test).

[5] = tested on: rat; test: 6-Hydroxydopamine (6-OH-DA) lesion in the rat, staircase test; assay type: in vivo; conditions: oral dose of 1.0 mg/kg bid
Description: 8.6-Hydroxydopamine (6-OH-DA) Lesion in the Rat
Degeneration of dopaminergic nigrostriatal and striatopallidal neurotransmission is the main characteristic of Parkinson's disease. The clinical picture of Parkinson's disease can be simulated to a large extent in an animal model in which the neurotoxin 6-OH-DA is injected intracerebrally in rats.
Male rats (Harlan Winkelmann, Germany; weight at start of test: 200-250 g) were used for the experiments described. The experimental animals were housed under controlled conditions (humidity, temperature) with a 12-hour light/dark cycle. Those animals not involved in an experiment had free access to water and feed.
On the day of the operation, 30 minutes before the lesion, pargyline (Sigma, St. Louis, Mo., USA; 50 mg/kg i.p.) and desmethylimipramine HCl (Sigma; 25 mg/kg i.p.) were administered to the animals in order respectively to suppress 6-hydroxydopamine metabolism and prevent uptake of 6-hydroxydopamine in noradrenergic structures. […]
After the operation, the animals were placed on a warm plate and, after regaining consciousness while being monitored, returned to their cage and received feed and water ad libitum. […]
The motor deficits after the lesion were quantified using the following test as described in the respective literature: […]

[6] = target: T2, rat CB1 receptor (Rattus norvegicus, UniProt P20272); test: Rat CB1 luciferase reporter gene test; assay type: cell-based; conditions: rat CHOCB1 reporter cell line, forskolin-stimulated luciferase activity
T2 construct: expressed in transfected cells; host or cells: CHO (CHOluc9) luciferase reporter cells
Description: 1. Rats CB1 Luciferase Reporter Gene Test
Stock cultures of a rat CHOCB1 reporter cell line were prepared by the method described in WO-A-98/37061, page 55 et seq.
The following test protocol was used for the substance screening: the stock cultures were cultivated in 50% of Dulbecco's modified Eagle medium/50% F-12 (DMEM/F12) with 10% FCS at 37° C. under 10% CO2 and split 1:10 after 2 to 3 days in each case. Test cultures were seeded at 5000cells […] in 96-well plates and cultured at 37° C. for 70 hours. The cultures were then cautiously washed with phosphate-buffered saline and reconstituted with serum-free Ultra-CHO medium (Bio-Whittaker). The substances dissolved in DMSO were diluted 1× in medium and pipetted into the test cultures (maximum DMSO final concentration in test mixture: 0.5%). 20 minutes later, forskolin was added and the cultures were then incubated in an incubator at 37° C. for 3 hours. […] Immediately thereafter luciferase substrate solution (2.5 mM ATP, 0.5 mM luciferin, 0.1 mM coenzyme A, 10 mM tricine, 1.35 mM MgSO4, 15 mM DTT, pH 7.8) and briefly shaken, and the luciferase activity was measured using a Hamamatsu camera system. […]
The IC50 values were calculated using the GraphPadPrism program (Hill equation, specifically: one-site competition).

T2 sequence (P20272 whole entry): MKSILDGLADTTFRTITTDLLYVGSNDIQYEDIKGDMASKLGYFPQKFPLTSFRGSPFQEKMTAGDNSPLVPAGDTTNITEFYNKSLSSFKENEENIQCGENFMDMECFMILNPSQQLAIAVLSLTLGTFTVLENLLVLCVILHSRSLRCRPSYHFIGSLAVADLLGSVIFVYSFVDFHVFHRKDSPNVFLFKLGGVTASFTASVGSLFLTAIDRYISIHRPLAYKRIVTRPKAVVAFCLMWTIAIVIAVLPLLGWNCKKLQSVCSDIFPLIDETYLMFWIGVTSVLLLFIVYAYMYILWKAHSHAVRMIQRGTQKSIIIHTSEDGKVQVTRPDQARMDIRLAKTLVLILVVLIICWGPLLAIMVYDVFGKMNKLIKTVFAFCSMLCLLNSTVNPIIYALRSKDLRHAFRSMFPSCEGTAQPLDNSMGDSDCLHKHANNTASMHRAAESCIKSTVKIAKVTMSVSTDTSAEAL
T1 sequence (P20272 whole entry): as above

Row | SMILES | maximum possible availability (Fmax) [1] | AUCnorm ([2]; oral, dose 3 mg/kg) [kg·h/L] | Cmax,norm ([2]; oral, dose 3 mg/kg) [kg/L] | F ([2]; oral, dose 3 mg/kg) [%] | clearance ([2]; plasma, iv, dose 0.3 mg/kg) [mL/min/kg] | half-life ([2]; plasma, iv, dose 0.3 mg/kg) [h] | Vd ([2]; plasma, iv, dose 0.3 mg/kg, read-out: Vss) [L/kg] | Tmax ([2]; plasma, oral, dose 3 mg/kg) [h] | half-life ([2]; plasma, oral, dose 3 mg/kg) [h] | ED−1° C. (effective dose for reducing the body temperature by 1° C.) [3] [mg/kg] | minimally effective dose reducing the hyperalgesia [4] [mg/kg] | fine coordination of the forepaws in the staircase test [5] | IC50 [6] [nM]
1 | O=S(=O)(CCCC(F)(F)F)Oc1cccc(-c2cccc(C(F)(F)F)c2)c1 [Example 2] | up to 100% | 0.322 | 0.0674 | 100 | 51.7 | 2.2 | 5.8 | 3 | 1.7 | 5 | 1 | improvement in the fine coordination of the forepaws | 
2 | CCCCCS(=O)(=O)Oc1cccc(-c2cccc(C(F)(F)F)c2)c1 [Example 3] |  |  |  |  |  |  |  |  |  |  |  |  | 2.4
3 | Cc1ccnc(-c2cccc(OS(=O)(=O)CCCC(F)(F)F)c2)c1 [Example 17] |  |  |  |  |  |  |  |  |  |  |  |  | 16
